The target in the test is T1, human orexin-2 receptor (OX2R) (Homo sapiens, UniProt O43614).
T1 construct: expressed in transfected cells
T1 sequence (O43614 1-444): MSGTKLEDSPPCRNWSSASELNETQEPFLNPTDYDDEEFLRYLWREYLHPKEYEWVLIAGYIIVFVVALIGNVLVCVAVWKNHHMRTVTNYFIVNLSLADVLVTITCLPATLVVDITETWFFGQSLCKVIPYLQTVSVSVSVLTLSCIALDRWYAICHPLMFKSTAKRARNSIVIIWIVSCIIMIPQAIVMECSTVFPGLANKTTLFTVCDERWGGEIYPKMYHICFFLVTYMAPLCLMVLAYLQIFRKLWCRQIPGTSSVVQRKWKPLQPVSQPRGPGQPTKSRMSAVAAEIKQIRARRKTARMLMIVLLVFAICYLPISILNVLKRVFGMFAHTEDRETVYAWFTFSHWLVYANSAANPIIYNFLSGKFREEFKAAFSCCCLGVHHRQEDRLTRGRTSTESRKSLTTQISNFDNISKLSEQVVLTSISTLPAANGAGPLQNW
As to the kind of experiment: Human OX2R IP1 assay. The class given is cell-based. Particulars: T-Rex CHO cells stably overexpressing human OX2R; IP1 accumulation; 1 hr at 37 degrees C; mean EC50. The procedure: T-Rex CHO cells stably overexpressing the human orexin-2 receptor (OX2R) were induced overnight with 1 μg/mL of doxycycline in a T225 flask. 24 hours post induction, cells were lifted with accutase and plated into a 384-well proxy plate at 30,000 cells/well. Cells were then treated with different test compounds in 1× stimulation buffer containing 10 mM Hepes, 1 mM CaCl2), 0.5 mM MgCl2, 4.2 mM KCl, 146 mM NaCl, 5.5 mM glucose, and 50 mM LiCl, pH 7.4, for 1 hr at 37 degrees C. Following incubation, the reaction was terminated by the addition of detection mix, which is composed of IP1-d2 and anti-IP1-cryptate diluted in lysis buffer as well as 1× stimulation buffer. The plates were allowed to incubate for 1 hour at room temperature and were then read in the EnVision® multimode plate reader, measuring inositol phosphate levels.
Cisbio IP1 is a cell-based functional assay quantifying the accumulation of inositol monophosphate (IP), a metabolite released as a result of orexin 2 receptor activation through the phospholipase C-Gq signaling pathway. This is a competitive immunoassay in which the IP1 produced by the cells upon receptor activation competes with the IP1 analog coupled to the d2 fluorophore (acceptor) for binding to an anti-IP1 monoclonal antibody labeled with Eu cryptate (donor). The measured HTRF-FRET based signal is inversely proportional to the IP1 concentration produced.
The EC50 values reported in Table 2 were obtained according to the human OX2R IP1 assay described above. Data are the mean EC50 values S.E.M. Reference Compound A is methyl (2R,3S)-3-((methylsulfonyl)amino)-2-(((cis-4-phenylcyclohexyl)oxy)methyl)-piperidine-1-carboxylate (Example 5 of PCT publication No. WO2017/135306). Reference Compound B is N-((2S,3S)-1-(2-hydroxy-2-methylpropanoyl)-2-((2,3′,5′-trifluorobiphenyl-3-yl)methyl)pyrrolidin-3-yl)methanesulfonamide (Example 483 of PCT publication No. WO2019/027058).

By EC50 is commonly meant the concentration at which the effect is half-maximal.

As for `O=C1COc2ccccc2[C@H]2CC[C@H](CC2)OC[C@H]2[C@@H](NS(=O)(=O)C3CC3)CCCN12` (stereo in doubt) [Compound 1], the concentration giving a half-maximal response (EC50) was less than 10 nM.

Turning to `Cc1cccc2c1[C@H]1CC[C@H](CC1)OC[C@H]1[C@@H](NS(C)(=O)=O)CCCN1C(=O)CO2` (stereo in doubt) [Compound 2], the concentration for a half-maximal effect (EC50) was less than 10 nM.

`CC(C)S(=O)(=O)N[C@H]1CCCN2C(=O)COc3ccccc3[C@H]3CC[C@H](CC3)OC[C@@H]12` (stereo in doubt) [Compound 3] returned an EC50 of less than 10 nM.

In the case of `Cc1cccc2c1[C@H]1CC[C@H](CC1)OC[C@H]1[C@@H](NS(=O)(=O)C3CC3)CCCN1C(=O)CO2` (stereo in doubt) [Compound 4], the EC50 was less than 10 nM.

With `C=CS(=O)(=O)N[C@H]1CCCN2C(=O)COc3ccccc3[C@H]3CC[C@H](CC3)OC[C@@H]12` (stereo in doubt) [Compound 5], the EC50 was less than 10 nM.

Regarding `O=C1COc2ccccc2[C@H]2CC[C@H](CC2)OC[C@H]2[C@@H](NS(=O)(=O)CF)CCCN12` (stereo in doubt) [Compound 6], the concentration for a half-maximal effect (EC50) is less than 10 nM.

Turning to `O=C1COc2ccccc2[C@H]2CC[C@H](CC2)OC[C@H]2[C@@H](NS(=O)(=O)C(F)F)CCCN12` (stereo in doubt) [Compound 7], the 50% effective concentration (EC50) was less than 10 nM.

`CC1(S(=O)(=O)N[C@H]2CCCN3C(=O)COc4ccccc4[C@H]4CC[C@H](CC4)OC[C@@H]23)CC1` (stereo in doubt) [Compound 8] displayed an EC50 of less than 10 nM.

As to `Cc1cccc2c1[C@H]1CC[C@H](CC1)OC[C@H]1[C@@H](NS(=O)(=O)C(C)C)CCCN1C(=O)CO2` (stereo in doubt) [Compound 9], the EC50 is less than 10 nM.

`Cc1ccnc2c1[C@H]1CC[C@H](CC1)OC[C@H]1[C@@H](NS(=O)(=O)C(C)C)CCCN1C(=O)CO2` (stereo in doubt) [Compound 10] showed a concentration for a half-maximal effect (EC50) of less than 10 nM.

`O=C1COc2ccccc2[C@H]2CC[C@H](CC2)OC[C@H]2[C@@H](NS(=O)(=O)C(F)(F)F)CCCN12` (stereo in doubt) [Compound 11]: the EC50 is less than 10 nM.

With `Cc1ccnc2c1[C@H]1CC[C@H](CC1)OC[C@H]1[C@@H](NS(C)(=O)=O)CCCN1C(=O)CO2` (stereo in doubt) [Compound 12], the 50% effective concentration (EC50) was less than 10 nM.

For `Cc1ccc2c(c1)[C@H]1CC[C@H](CC1)OC[C@H]1[C@@H](NS(=O)(=O)C3CC3)CCCN1C(=O)CO2` (stereo in doubt) [Compound 13], the concentration giving a half-maximal response (EC50) is less than 10 nM.

In the case of `O=C1COc2ncccc2[C@H]2CC[C@H](CC2)OC[C@H]2[C@@H](NS(=O)(=O)C3CC3)CCCN12` (stereo in doubt) [Compound 14], the EC50 was less than 10 nM.

The molecule `CC(C)S(=O)(=O)N[C@H]1CCCN2C(=O)COc3ncccc3[C@H]3CC[C@H](CC3)OC[C@@H]12` (stereo in doubt) [Compound 15] yielded a concentration giving a half-maximal response (EC50) of less than 10 nM.

Turning to `O=C1COc2ccc(Cl)cc2[C@H]2CC[C@H](CC2)OC[C@H]2[C@@H](NS(=O)(=O)C3CC3)CCCN12` (stereo in doubt) [Compound 16], the 50% effective concentration (EC50) is less than 10 nM.

As for `Cc1ccc2c(c1)[C@H]1CC[C@H](CC1)OC[C@H]1[C@@H](NS(C)(=O)=O)CCCN1C(=O)CO2` (stereo in doubt) [Compound 17], the 50% effective concentration (EC50) is less than 10 nM.

In turn, `Cc1ccc2c(c1)[C@H]1CC[C@H](CC1)OC[C@H]1[C@@H](NS(=O)(=O)C(C)C)CCCN1C(=O)CO2` (stereo in doubt) [Compound 18] registered an EC50 of less than 10 nM.

Molecule `O=C1COc2ccccc2[C@H]2CC[C@H](CC2)OC[C@H]2[C@@H](NS(=O)(=O)CCO)CCCN12` (stereo in doubt) [Compound 19] came in with an EC50 of less than 10 nM.

With `CC(C)S(=O)(=O)N[C@H]1CCCN2C(=O)COc3ccc(Cl)cc3[C@H]3CC[C@H](CC3)OC[C@@H]12` (stereo in doubt) [Compound 26], the concentration for a half-maximal effect (EC50) was less than 10 nM.

As to `Cc1c(Cl)ccc2c1[C@H]1CC[C@H](CC1)OC[C@H]1[C@@H](NS(=O)(=O)C(C)C)CCCN1C(=O)CO2` (stereo in doubt) [Compound 28], the concentration giving a half-maximal response (EC50) was less than 10 nM.

For `Cc1c(Cl)ccc2c1[C@H]1CC[C@H](CC1)OC[C@H]1[C@@H](NS(C)(=O)=O)CCCN1C(=O)CO2` (stereo in doubt) [Compound 31], the concentration giving a half-maximal response (EC50) was less than 10 nM.

`O=C1COc2ccccc2[C@H]2CC[C@H](CC2)OC[C@H]2[C@@H](NS(=O)(=O)C3CCCC3)CCCN12` (stereo in doubt) [Compound 33] showed a 50% effective concentration (EC50) of less than 10 nM.

Turning to `Cc1cnc2c(c1)[C@H]1CC[C@H](CC1)OC[C@H]1[C@@H](NS(=O)(=O)C(C)C)CCCN1C(=O)CO2` (stereo in doubt) [Compound 34], the EC50 was less than 10 nM.

In the case of `CC(C)S(=O)(=O)N[C@H]1CCCN2C(=O)COc3ncc(Cl)cc3[C@H]3CC[C@H](CC3)OC[C@@H]12` (stereo in doubt) [Compound 35], the EC50 was less than 10 nM.

`Cc1cccc2c1OCC(=O)N1CCC[C@H](NS(C)(=O)=O)[C@@H]1CO[C@H]1CC[C@@H]2CC1` (stereo in doubt) [Compound 37]: the EC50 was less than 10 nM.

For `CN(C)CCS(=O)(=O)N[C@H]1CCCN2C(=O)COc3ccccc3[C@H]3CC[C@H](CC3)OC[C@@H]12` (stereo in doubt) [Compound 39], the EC50 is less than 10 nM.

In turn, `Cc1ccc2c(c1)OCC(=O)N1CCC[C@H](NS(C)(=O)=O)[C@@H]1CO[C@H]1CC[C@@H]2CC1` (stereo in doubt) [Compound 40] returned an EC50 of 10 to 1000 nM.

With `O=C1COc2ccccc2[C@H]2CC[C@H](CC2)OC[C@H]2[C@@H](NS(=O)(=O)C3CCC3)CCCN12` (stereo in doubt) [Compound 42], the EC50 was less than 10 nM.

`O=C1COc2ccccc2[C@H]2CC[C@H](CC2)OC[C@H]2[C@@H](NS(=O)(=O)CC3CCC3)CCCN12` (stereo in doubt) [Compound 43] came in with a concentration for a half-maximal effect (EC50) of 10 to 1000 nM.

`CC(C)(C)S(=O)(=O)N[C@H]1CCCN2C(=O)COc3ccccc3[C@H]3CC[C@H](CC3)OC[C@@H]12` (stereo in doubt) [Compound 44] registered a 50% effective concentration (EC50) of 10 to 1000 nM.

Consider `CS(=O)(=O)N[C@H]1CCCN2C(=O)COc3ccc(C#N)cc3[C@H]3CC[C@H](CC3)OC[C@@H]12` (stereo in doubt) [Compound 46], for which the concentration for a half-maximal effect (EC50) lay in the range of 10 to 1000 nM.

Regarding `CS(=O)(=O)N[C@H]1CCCN2C(=O)COc3cc(C#N)ccc3[C@H]3CC[C@H](CC3)OC[C@@H]12` (stereo in doubt) [Compound 47], the EC50 was in the range of 10 to 1000 nM.

Turning to `O=C1COc2ccccc2[C@H]2CC[C@H](CC2)OC[C@H]2[C@@H](NS(=O)(=O)CC3CC3)CCCN12` (stereo in doubt) [Compound 48], the EC50 was less than 10 nM.

Turning to `Cc1cccc2c1OCCN1CCC[C@H](NS(C)(=O)=O)[C@@H]1CO[C@H]1CC[C@@H]2CC1` (stereo in doubt) [Compound 49], the concentration for a half-maximal effect (EC50) is more than 1000 nM.

As for `Cc1ccc2c(c1)OCCN1CCC[C@H](NS(C)(=O)=O)[C@@H]1CO[C@H]1CC[C@@H]2CC1` (stereo in doubt) [Compound 50], the EC50 is more than 1000 nM.

Molecule `O=S(=O)(N[C@H]1CCCN2CCOc3ccccc3[C@H]3CC[C@H](CC3)OC[C@@H]12)C1CC1` (stereo in doubt) [Compound 51] yielded an EC50 of 10 to 1000 nM.

In the case of `CC(C)S(=O)(=O)N[C@H]1CCCN2CCOc3ccccc3[C@H]3CC[C@H](CC3)OC[C@@H]12` (stereo in doubt) [Compound 52], the concentration giving a half-maximal response (EC50) was more than 1000 nM.

`CCS(=O)(=O)N[C@H]1CCCN2CCOc3ccccc3[C@H]3CC[C@H](CC3)OC[C@@H]12` (stereo in doubt) [Compound 53] returned an EC50 of more than 1000 nM.

`Cc1ccc2c(c1)[C@H]1CC[C@H](CC1)OC[C@H]1[C@@H](NS(C)(=O)=O)CCCN1CCO2` (stereo in doubt) [Compound 54] returned an EC50 of 10 to 1000 nM.

`O=S(=O)(CC1CCC1)N[C@H]1CCCN2CCOc3ccccc3[C@H]3CC[C@H](CC3)OC[C@@H]12` (stereo in doubt) [Compound 55] came in with an EC50 of more than 1000 nM.

Molecule `CC(C)(C)S(=O)(=O)N[C@H]1CCCN2CCOc3ccccc3[C@H]3CC[C@H](CC3)OC[C@@H]12` (stereo in doubt) [Compound 56] returned a concentration for a half-maximal effect (EC50) of more than 1000 nM.

`O=S(=O)(N[C@H]1CCCN2CCOc3ccccc3[C@H]3CC[C@H](CC3)OC[C@@H]12)C1CCC1` (stereo in doubt) [Compound 57] displayed an EC50 of 10 to 1000 nM.
